The text below walks through data of US12281102B2, “Inhibitors of APOL1 and methods of using same” (Vertex Pharmaceuticals Incorporated, priority 2020, dated 2025).

Where only a bound is given, the exact number is not on record here.

For the first assay, the target named is T1, G1 APOL1 (Homo sapiens, UniProt O14791, I384M/S342G).
T1 construct: expressed in transfected cells
T1 sequence (O14791 28-398 S342G/I384M): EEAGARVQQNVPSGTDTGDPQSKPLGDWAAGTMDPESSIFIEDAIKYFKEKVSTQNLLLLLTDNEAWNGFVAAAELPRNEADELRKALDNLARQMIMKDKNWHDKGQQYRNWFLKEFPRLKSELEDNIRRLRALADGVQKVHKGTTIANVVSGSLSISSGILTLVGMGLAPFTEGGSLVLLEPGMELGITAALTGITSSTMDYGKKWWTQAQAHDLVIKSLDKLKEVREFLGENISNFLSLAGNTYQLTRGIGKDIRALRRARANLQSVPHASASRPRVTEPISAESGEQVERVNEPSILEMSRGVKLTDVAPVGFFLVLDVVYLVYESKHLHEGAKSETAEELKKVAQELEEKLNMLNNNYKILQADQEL
The assay is described as follows: Acute APOL1 Thallium Assay with inducible stable clones of HEK 293 cells. It is filed as cell-based. Conditions: HEK 293 T-Rex inducible stable clone expressing G1 APOL1; read-out: Thallium Assay (IC50). Summed up: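 APOL1 pore function was measured as thallium influx, detected by a Tl+-sensitive fluorescent dye loaded as AM ester, on a FLIPR Tetra after Tl+ addition. Cells were HEK T-Rex G1 APOL1 clone DC3.25, 26,000 per well, induced with tetracycline at plating in Opti-MEM assay medium.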
Regarding `CN(C)CC(=O)N[C@H]1C[C@H](c2c(-c3ccc(F)cc3)[nH]c3c(F)cc(F)cc32)C1` [Compound 91], the IC50 was over 1000 nM. Consider `O=C(N[C@H]1C[C@H](c2c(-c3ccc(F)cc3)[nH]c3c(F)cc(F)cc32)C1)C(O)C1CC1` (some centres unmarked) [Compound 92], for which the concentration for half-maximal inhibition (IC50) is 250 to 1000 nM. `CC(C)C(O)C(=O)N[C@H]1C[C@H](c2c(-c3ccc(F)cc3)[nH]c3c(F)cc(F)cc32)C1` (some centres unmarked) [Compound 93]: the half-inhibitory concentration (IC50) fell in the range of 250 to 1000 nM. Consider `CC1(C(=O)N[C@H]2C[C@H](c3c(-c4ccc(F)cc4)[nH]c4c(F)cc(F)cc43)C2)CC(=O)C1` [Compound 94], for which the half-maximal inhibitory concentration (IC50) was 250 to 1000 nM.

In the case of `O=C(CCO)N[C@H]1C[C@H](c2c(-c3ccc(F)cc3)[nH]c3c(F)cc(F)cc32)C1` [Compound 95], the 50% inhibitory concentration (IC50) is under 250 nM.

`O=C(N[C@H]1C[C@H](c2c(-c3ccc(F)cc3)[nH]c3c(F)cc(F)cc32)C1)C(O)CO` (some centres unmarked) [Compound 96]: the half-inhibitory concentration (IC50) fell in the range of 250 to 1000 nM. Regarding `O=C(CC1CC(F)(F)C1)N[C@H]1C[C@H](c2c(-c3ccc(F)cc3)[nH]c3c(F)cc(F)cc32)C1` [Compound 98], the IC50 was over 1000 nM. On to `CS(=O)(=O)CCCC(=O)N[C@H]1C[C@H](c2c(-c3ccc(F)cc3)[nH]c3c(F)cc(F)cc32)C1` [Compound 99], for which the IC50 is over 1000 nM. Turning to `O=C(CC1CCOCC1)N[C@H]1C[C@H](c2c(-c3ccc(F)cc3)[nH]c3c(F)cc(F)cc32)C1` [Compound 100], the IC50 was over 1000 nM.

Regarding `O=C(CC1CS(=O)(=O)C1)N[C@H]1C[C@H](c2c(-c3ccc(F)cc3)[nH]c3c(F)cc(F)cc32)C1` [Compound 101], the half-maximal inhibitory concentration (IC50) was over 1000 nM. Take `CN(CC(=O)N[C@H]1C[C@H](c2c(-c3ccc(F)cc3)[nH]c3c(F)cc(F)cc32)C1)S(C)(=O)=O` [Compound 103]: the concentration for half-maximal inhibition (IC50) was over 1000 nM.

Consider `CN1CCCC(CC(=O)N[C@H]2C[C@H](c3c(-c4ccc(F)cc4)[nH]c4c(F)cc(F)cc43)C2)C1` (some centres unmarked) [Compound 104], for which the half-inhibitory concentration (IC50) was over 1000 nM. On to `Cn1ccc(CC(=O)N[C@H]2C[C@H](c3c(-c4ccc(F)cc4)[nH]c4c(F)cc(F)cc43)C2)n1` [Compound 106], for which the IC50 is 250 to 1000 nM. On to `CS(=O)(=O)NCC(=O)N[C@H]1C[C@H](c2c(-c3ccc(F)cc3)[nH]c3c(F)cc(F)cc32)C1` [Compound 107], for which the half-maximal inhibitory concentration (IC50) is over 1000 nM. For the compound `CCS(=O)(=O)NCC(=O)N[C@H]1C[C@H](c2c(-c3ccc(F)cc3)[nH]c3c(F)cc(F)cc32)C1` [Compound 108], the concentration for half-maximal inhibition (IC50) is over 1000 nM. Regarding `O=C(CCN1CCCC1)N[C@H]1C[C@H](c2c(-c3ccc(F)cc3)[nH]c3c(F)cc(F)cc32)C1` [Compound 109], the IC50 was over 1000 nM.

For `CN1CCC(CC(=O)N[C@H]2C[C@H](c3c(-c4ccc(F)cc4)[nH]c4c(F)cc(F)cc43)C2)C1` (some centres unmarked) [Compound 110], the IC50 was over 1000 nM. Same read-out and setting: the figure for `O=C(CN1CCCC1)N[C@H]1C[C@H](c2c(-c3ccc(F)cc3)[nH]c3c(F)cc(F)cc32)C1` [Compound 112] is over 1000 nM; for `O=C(CC1(O)CCCCC1)N[C@H]1C[C@H](c2c(-c3ccc(F)cc3)[nH]c3c(F)cc(F)cc32)C1` [Compound 113] it is over 1000 nM. Still for that read-out and setting: the figure for `O=C(CCN1CCCC1=O)N[C@H]1C[C@H](c2c(-c3ccc(F)cc3)[nH]c3c(F)cc(F)cc32)C1` [Compound 114] is over 1000 nM. For the compound `Cn1nccc1CC(=O)N[C@H]1C[C@H](c2c(-c3ccc(F)cc3)[nH]c3c(F)cc(F)cc32)C1` [Compound 115], the IC50 was over 1000 nM.

On to `NS(=O)(=O)CCC(=O)N[C@H]1C[C@H](c2c(-c3ccc(F)cc3)[nH]c3c(F)cc(F)cc32)C1` [Compound 116], for which the half-inhibitory concentration (IC50) lay within 250 to 1000 nM. Still for that read-out and setting: the figure for `CN1CCC(CC(=O)N[C@H]2C[C@H](c3c(-c4ccc(F)cc4)[nH]c4c(F)cc(F)cc43)C2)CC1` [Compound 117] is over 1000 nM; for `O=C(CC1CCCOC1)N[C@H]1C[C@H](c2c(-c3ccc(F)cc3)[nH]c3c(F)cc(F)cc32)C1` (some centres unmarked) [Compound 118] it is over 1000 nM. Take `CS(=O)(=O)CCC(=O)N[C@H]1C[C@H](c2c(-c3ccc(F)cc3)[nH]c3c(F)cc(F)cc32)C1` [Compound 119]: the IC50 was over 1000 nM. For `O=C(CC(=O)N1CCOCC1)N[C@H]1C[C@H](c2c(-c3ccc(F)cc3)[nH]c3c(F)cc(F)cc32)C1` [Compound 120], the IC50 was over 1000 nM. As to `O=C(CN1CCOCC1)N[C@H]1C[C@H](c2c(-c3ccc(F)cc3)[nH]c3c(F)cc(F)cc32)C1` [Compound 121], the IC50 is over 1000 nM. On the same count and under the same terms, the value for `CN(C)CCC(=O)N[C@H]1C[C@H](c2c(-c3ccc(F)cc3)[nH]c3c(F)cc(F)cc32)C1` [Compound 122] was over 1000 nM; that for `CN(C)C(=O)CCC(=O)N[C@H]1C[C@H](c2c(-c3ccc(F)cc3)[nH]c3c(F)cc(F)cc32)C1` [Compound 123] was 250 to 1000 nM. Regarding `O=C(CCN1CCCCC1)N[C@H]1C[C@H](c2c(-c3ccc(F)cc3)[nH]c3c(F)cc(F)cc32)C1` [Compound 124], the 50% inhibitory concentration (IC50) is over 1000 nM. With `COCCC(=O)N[C@H]1C[C@H](c2c(-c3ccc(F)cc3)[nH]c3c(F)cc(F)cc32)C1` [Compound 125], the half-inhibitory concentration (IC50) is under 250 nM. As to `Cc1nccn1CC(=O)N[C@H]1C[C@H](c2c(-c3ccc(F)cc3)[nH]c3c(F)cc(F)cc32)C1` [Compound 126], the IC50 was over 1000 nM.

`CC1(C)CCC(C(=O)N[C@H]2C[C@H](c3c(-c4ccc(F)cc4)[nH]c4c(F)cc(F)cc43)C2)N1` (some centres unmarked) [Compound 127]: the concentration for half-maximal inhibition (IC50) was over 1000 nM. Consider `O=C1CC(C(=O)N[C@H]2C[C@H](c3c(-c4ccc(F)cc4)[nH]c4c(F)cc(F)cc43)C2)C(=O)N1` (some centres unmarked) [Compound 128], for which the IC50 is under 250 nM. As to `N#CCC(=O)N[C@H]1C[C@H](c2c(-c3ccc(F)cc3)[nH]c3c(F)cc(F)cc32)C1` [Compound 129], the IC50 was under 250 nM.

With `CC(F)(F)C(=O)N[C@H]1C[C@H](c2c(-c3ccc(F)cc3)[nH]c3c(F)cc(F)cc32)C1` [Compound 130], the IC50 lay in the range of 250 to 1000 nM. For `O=C(N[C@H]1C[C@H](c2c(-c3ccc(F)cc3)[nH]c3c(F)cc(F)cc32)C1)C1COC1` [Compound 131], the 50% inhibitory concentration (IC50) lay in the range of 250 to 1000 nM. Turning to `O=C1CC(CC(=O)N[C@H]2C[C@H](c3c(-c4ccc(F)cc4)[nH]c4c(F)cc(F)cc43)C2)CC(=O)N1` [Compound 132], the IC50 was over 1000 nM. With `CC(C)(O)C(=O)N[C@H]1C[C@H](c2c(-c3ccc(F)cc3)[nH]c3c(F)cc(F)cc32)C1` [Compound 133], the IC50 is under 250 nM.

In the case of `CNCCC(=O)N[C@H]1C[C@H](c2c(-c3ccc(F)cc3)[nH]c3c(F)cc(F)cc32)C1` [Compound 134], the IC50 lay in the range of 250 to 1000 nM.

For `O=C(N[C@H]1C[C@H](c2c(-c3ccc(F)cc3)[nH]c3c(F)cc(F)cc32)C1)C1(O)CC1` [Compound 135], the IC50 was under 250 nM. Consider `O=C(CO)N[C@H]1C[C@H](c2c(-c3ccc(F)cc3)[nH]c3c(F)cc(F)cc32)C1` [Compound 136], for which the concentration for half-maximal inhibition (IC50) is under 250 nM. In the case of `O=C(CC1COC1)N[C@H]1C[C@H](c2c(-c3ccc(F)cc3)[nH]c3c(F)cc(F)cc32)C1` [Compound 138], the IC50 was over 1000 nM.

For the compound `O=C(Cn1cnnc1)N[C@H]1C[C@H](c2c(-c3ccc(F)cc3)[nH]c3c(F)cc(F)cc32)C1` [Compound 139], the IC50 is over 1000 nM.

Regarding `O=C1CC(C(=O)N[C@H]2C[C@H](c3c(-c4ccc(F)cc4)[nH]c4c(F)cc(F)cc43)C2)CN1` (some centres unmarked) [Compound 140], the IC50 was over 1000 nM. As for `CNC1(C(=O)N[C@H]2C[C@H](c3c(-c4ccc(F)cc4)[nH]c4c(F)cc(F)cc43)C2)CC1` [Compound 141], the concentration for half-maximal inhibition (IC50) lay in the range of 250 to 1000 nM. Take `O=C(N[C@H]1C[C@H](c2c(-c3ccc(F)cc3)[nH]c3c(F)cc(F)cc32)C1)C1(CO)CC1` [Compound 142]: the IC50 was under 250 nM. For `Cn1cnc(CC(=O)N[C@H]2C[C@H](c3c(-c4ccc(F)cc4)[nH]c4c(F)cc(F)cc43)C2)c1` [Compound 143], the IC50 lay in the range of 250 to 1000 nM. Same read-out and setting: the value for `O=C(N[C@H]1C[C@H](c2c(-c3ccc(F)cc3)[nH]c3c(F)cc(F)cc32)C1)C(F)F` [Compound 144] was under 250 nM; that for `O=S(=O)(N[C@H]1C[C@H](c2c(-c3ccc(F)cc3)[nH]c3c(F)cc(F)cc32)C1)c1cn[nH]c1` [Compound 145, N-[(1r,3r)-3-[5,7-difluoro-2-(4-fluorophenyl)-1H-indol-3-yl]cyclobutyl]-1H-pyrazole-4-sulfonamide] was 250 to 1000 nM. On the same count and under the same terms, the value for `O=S(=O)(CCO)N[C@H]1C[C@H](c2c(-c3ccc(F)cc3)[nH]c3c(F)cc(F)cc32)C1` [Compound 146] was under 250 nM. Regarding `CCS(=O)(=O)N[C@H]1C[C@H](c2c(-c3ccc(F)cc3)[nH]c3c(F)cc(F)cc32)C1` [Compound 147], the IC50 is under 250 nM. With `Cn1ccnc1S(=O)(=O)N[C@H]1C[C@H](c2c(-c3ccc(F)cc3)[nH]c3c(F)cc(F)cc32)C1` [Compound 148], the IC50 was over 1000 nM. The same measure, in the same setting: the value for `CC(C)S(=O)(=O)N[C@H]1C[C@H](c2c(-c3ccc(F)cc3)[nH]c3c(F)cc(F)cc32)C1` [Compound 149] was 250 to 1000 nM; that for `O=S(=O)(N[C@H]1C[C@H](c2c(-c3ccc(F)cc3)[nH]c3c(F)cc(F)cc32)C1)c1c[nH]cn1` [Compound 150] was 250 to 1000 nM.

Still in this assay, the particulars now being: Thallium Assay (IC50), HEK 293 T-Rex inducible stable clone expressing G1 APOL1.
Compound `NCC(=O)N[C@H]1C[C@H](c2c(-c3ccc(F)cc3)[nH]c3c(F)cc(F)cc32)C1` [Compound 137] had an IC50 of under 250 nM.
